Measured values taken from ChEMBL document CHEMBL3414499, “Characterization of two distinct structural classes of selective aldehyde dehydrogenase 1A1 inhibitors” (J Med Chem, 2015).
Active and inactive are the calls of the source. No cut-off for these calls is given here.

What was measured:
[1] = biological target: T1, Cytosolic 10-formyltetrahydrofolate dehydrogenase (Rattus norvegicus) (UniProt P28037); assay: Effect on rat carboxy terminal ALDH domain of ALDH1L1 at 20 uM preincubated for 2 mins with NAD+ followed by aldehyde substrate addition
T1 sequence (whole entry): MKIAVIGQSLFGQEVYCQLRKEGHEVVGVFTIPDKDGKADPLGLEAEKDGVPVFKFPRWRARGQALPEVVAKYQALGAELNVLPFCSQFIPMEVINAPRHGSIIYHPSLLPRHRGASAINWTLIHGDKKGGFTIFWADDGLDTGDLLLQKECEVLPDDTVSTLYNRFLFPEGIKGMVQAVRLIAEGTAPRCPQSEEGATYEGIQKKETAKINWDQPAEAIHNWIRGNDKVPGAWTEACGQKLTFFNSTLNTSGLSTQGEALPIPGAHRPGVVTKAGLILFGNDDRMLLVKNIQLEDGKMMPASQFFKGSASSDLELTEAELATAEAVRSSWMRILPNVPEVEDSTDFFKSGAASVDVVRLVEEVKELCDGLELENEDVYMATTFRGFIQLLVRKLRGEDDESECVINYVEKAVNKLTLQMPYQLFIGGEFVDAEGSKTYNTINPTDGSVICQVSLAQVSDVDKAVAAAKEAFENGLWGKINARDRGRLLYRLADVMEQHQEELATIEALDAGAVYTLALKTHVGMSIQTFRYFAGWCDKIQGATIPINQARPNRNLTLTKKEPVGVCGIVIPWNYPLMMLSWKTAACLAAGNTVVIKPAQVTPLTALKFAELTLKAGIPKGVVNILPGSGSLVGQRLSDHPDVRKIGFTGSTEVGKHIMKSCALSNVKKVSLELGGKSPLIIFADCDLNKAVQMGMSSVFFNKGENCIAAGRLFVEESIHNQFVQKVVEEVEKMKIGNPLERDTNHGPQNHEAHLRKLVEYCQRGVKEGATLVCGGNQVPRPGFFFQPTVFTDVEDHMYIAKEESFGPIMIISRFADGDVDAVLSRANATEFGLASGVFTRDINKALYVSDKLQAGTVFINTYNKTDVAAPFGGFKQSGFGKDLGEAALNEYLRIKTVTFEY

[2] = biological target: T2, Retinaldehyde dehydrogenase 3 (Homo sapiens) (UniProt P47895); assay: Effect on recombinant human ALDH1A3 using propionaldehyde as substrate at 20 uM preincubated for 2 mins with NAD+ followed by substrate addition by UV-Vis spectrophotometric analysis
T2 sequence (whole entry): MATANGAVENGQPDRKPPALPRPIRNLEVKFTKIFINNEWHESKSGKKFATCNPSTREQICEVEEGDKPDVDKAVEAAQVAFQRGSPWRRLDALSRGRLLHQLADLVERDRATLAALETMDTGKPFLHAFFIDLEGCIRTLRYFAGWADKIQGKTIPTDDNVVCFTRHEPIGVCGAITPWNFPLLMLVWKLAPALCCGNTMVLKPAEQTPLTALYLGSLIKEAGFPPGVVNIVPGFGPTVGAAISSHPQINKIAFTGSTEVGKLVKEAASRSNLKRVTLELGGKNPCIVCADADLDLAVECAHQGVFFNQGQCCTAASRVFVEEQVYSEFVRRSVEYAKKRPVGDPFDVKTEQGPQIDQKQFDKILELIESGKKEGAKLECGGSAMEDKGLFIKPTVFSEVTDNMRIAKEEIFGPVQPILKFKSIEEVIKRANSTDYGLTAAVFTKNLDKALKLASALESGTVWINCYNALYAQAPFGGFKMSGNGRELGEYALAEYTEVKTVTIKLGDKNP

[3] = biological target: T3, Retinal dehydrogenase 2 (Homo sapiens) (UniProt O94788); assay: Effect on recombinant human ALDH1A2 using propionaldehyde as substrate at 20 uM preincubated for 2 mins with NAD+ followed by substrate addition by UV-Vis spectrophotometric analysis
T3 sequence (whole entry): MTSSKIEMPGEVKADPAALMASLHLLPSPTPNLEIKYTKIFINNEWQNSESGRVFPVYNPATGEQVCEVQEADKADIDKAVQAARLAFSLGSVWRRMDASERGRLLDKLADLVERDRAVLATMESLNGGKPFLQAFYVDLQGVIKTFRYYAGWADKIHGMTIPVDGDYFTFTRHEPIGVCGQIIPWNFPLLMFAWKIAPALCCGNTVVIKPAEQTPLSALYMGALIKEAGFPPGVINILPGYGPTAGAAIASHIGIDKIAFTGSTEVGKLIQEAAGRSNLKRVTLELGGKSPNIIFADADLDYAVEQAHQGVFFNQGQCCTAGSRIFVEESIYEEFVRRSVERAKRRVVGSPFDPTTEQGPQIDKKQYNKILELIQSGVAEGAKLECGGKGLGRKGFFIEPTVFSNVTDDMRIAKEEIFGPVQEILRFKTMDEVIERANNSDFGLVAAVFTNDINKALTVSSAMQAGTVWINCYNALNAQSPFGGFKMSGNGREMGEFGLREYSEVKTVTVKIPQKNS

[4] = biological target: T4, Succinate-semialdehyde dehydrogenase, mitochondrial (Homo sapiens) (UniProt P51649); assay: Effect on human ALDH5A1 at 20 uM preincubated for 2 mins with NAD+ followed by aldehyde substrate addition
T4 sequence (whole entry): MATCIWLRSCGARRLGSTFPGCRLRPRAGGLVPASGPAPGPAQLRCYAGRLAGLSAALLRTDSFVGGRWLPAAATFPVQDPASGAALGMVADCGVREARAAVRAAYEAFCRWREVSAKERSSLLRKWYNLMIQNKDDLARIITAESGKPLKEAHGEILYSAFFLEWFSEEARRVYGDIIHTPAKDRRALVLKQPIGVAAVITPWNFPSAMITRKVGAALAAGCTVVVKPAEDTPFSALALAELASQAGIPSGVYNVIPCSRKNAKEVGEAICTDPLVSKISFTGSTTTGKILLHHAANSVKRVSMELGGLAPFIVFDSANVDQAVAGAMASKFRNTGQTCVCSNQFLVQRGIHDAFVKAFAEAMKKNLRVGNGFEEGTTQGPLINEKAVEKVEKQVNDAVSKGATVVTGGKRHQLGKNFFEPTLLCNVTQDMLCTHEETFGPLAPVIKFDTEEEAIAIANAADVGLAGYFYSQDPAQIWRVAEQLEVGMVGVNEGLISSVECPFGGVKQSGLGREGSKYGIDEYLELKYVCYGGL

Activity [1]: inactive | Activity [2]: inactive | Activity [3]: inactive | Activity [4]: inactive
Compound: CC(C)CCn1c(CN2CCN(C(=O)c3ccco3)CC2)nc2c1c(=O)n(C)c(=O)n2C
